Source: US10214492B2, “Heterocyclic inhibitors of MCT4” (Vettore, LLC, priority 2016, dated 2019)
Where two headings read alike, the source gives them in different places.

Legend:
MCT4 = MCT4 (Homo sapiens (Human), UniProt O15427); assay: Assay 3: MCT4-mediated lactate transport in MDA-MB-231 breast cancer cells; type: cell-based
Procedure: (§1) 10 μL of a 30 mM DMSO stock of BCECF-AM ester (Life Technologies) is added and the cells are incubated at 37° C. for 5 min. The cells are pelleted (300 g, 5 min), washed once with 1 mL Tyrode's Solution, pH 7.4, re-pelleted (300 g, 5 min), and resuspended in 1 mL Tyrode's Solution, pH 7.4.
MCT4 activity may be assessed by monitoring the intracellular pH change that accompanies lactate/proton symport, using the pH-sensitive fluorescent dye 2′,7′-bis-(carboxyethyl)-5(6)-carboxyfluorescein (BCECF), in a manner similar to that previously reported for MCT1 and MCT4. The following is an exemplary procedure for assaying MCT4 activity of the compounds of Formula (I).

MCT1 = MCT1 (Homo sapiens (Human), UniProt P53985); assay: Assay 4: MCT1-mediated lactate transport in BT20 breast cancer cells; type: cell-based; settings: Table 27
Sequence of MCT1 (P53985 whole entry): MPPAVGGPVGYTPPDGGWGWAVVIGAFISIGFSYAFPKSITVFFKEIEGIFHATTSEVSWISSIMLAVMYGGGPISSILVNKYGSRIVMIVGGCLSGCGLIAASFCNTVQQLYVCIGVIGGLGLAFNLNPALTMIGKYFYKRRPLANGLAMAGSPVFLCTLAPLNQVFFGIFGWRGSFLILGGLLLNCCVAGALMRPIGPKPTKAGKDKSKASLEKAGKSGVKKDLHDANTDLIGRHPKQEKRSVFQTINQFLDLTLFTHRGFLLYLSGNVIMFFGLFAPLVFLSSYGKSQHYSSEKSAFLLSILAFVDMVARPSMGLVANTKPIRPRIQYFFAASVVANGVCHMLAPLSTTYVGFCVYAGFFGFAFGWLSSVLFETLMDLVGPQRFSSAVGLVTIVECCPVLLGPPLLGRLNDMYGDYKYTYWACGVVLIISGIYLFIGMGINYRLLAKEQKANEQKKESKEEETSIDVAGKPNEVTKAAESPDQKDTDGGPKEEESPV
Sequence of MCT1 (P35613 140-385 partner): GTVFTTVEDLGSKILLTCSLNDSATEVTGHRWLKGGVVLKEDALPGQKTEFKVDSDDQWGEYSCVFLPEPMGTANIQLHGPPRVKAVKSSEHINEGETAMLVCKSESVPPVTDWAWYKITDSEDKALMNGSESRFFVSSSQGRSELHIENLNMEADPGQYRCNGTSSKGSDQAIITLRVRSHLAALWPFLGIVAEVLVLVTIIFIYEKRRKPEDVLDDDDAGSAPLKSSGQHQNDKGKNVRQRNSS
Procedure: as §1
Assay 4: MCT1-Mediated Lactate Transport in BT20 Breast Cancer Cells.
Preparation of BCECF loaded cells are as described for Assay 1. Lactate transport assay is as described for Assay 1, except 10 mM L-lactate (rather than 50 mM) is added.

[1] = MDA-MB-231 cells, lactate transport

Sequence of MCT4 (O15427 whole entry, looked up): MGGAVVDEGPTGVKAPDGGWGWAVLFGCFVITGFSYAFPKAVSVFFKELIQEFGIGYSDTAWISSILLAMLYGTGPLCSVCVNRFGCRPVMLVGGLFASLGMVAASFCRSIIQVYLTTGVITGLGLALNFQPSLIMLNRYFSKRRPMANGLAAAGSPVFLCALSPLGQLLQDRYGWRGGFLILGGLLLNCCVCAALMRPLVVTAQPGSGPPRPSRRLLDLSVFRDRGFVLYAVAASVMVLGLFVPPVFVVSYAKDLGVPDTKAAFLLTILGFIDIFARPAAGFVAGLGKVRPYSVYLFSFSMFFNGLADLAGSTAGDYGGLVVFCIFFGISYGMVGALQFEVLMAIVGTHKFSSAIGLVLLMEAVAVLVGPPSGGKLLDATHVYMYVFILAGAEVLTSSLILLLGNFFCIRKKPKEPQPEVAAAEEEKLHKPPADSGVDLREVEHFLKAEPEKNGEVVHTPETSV
Sequence of MCT4 (P35613 whole entry partner, looked up): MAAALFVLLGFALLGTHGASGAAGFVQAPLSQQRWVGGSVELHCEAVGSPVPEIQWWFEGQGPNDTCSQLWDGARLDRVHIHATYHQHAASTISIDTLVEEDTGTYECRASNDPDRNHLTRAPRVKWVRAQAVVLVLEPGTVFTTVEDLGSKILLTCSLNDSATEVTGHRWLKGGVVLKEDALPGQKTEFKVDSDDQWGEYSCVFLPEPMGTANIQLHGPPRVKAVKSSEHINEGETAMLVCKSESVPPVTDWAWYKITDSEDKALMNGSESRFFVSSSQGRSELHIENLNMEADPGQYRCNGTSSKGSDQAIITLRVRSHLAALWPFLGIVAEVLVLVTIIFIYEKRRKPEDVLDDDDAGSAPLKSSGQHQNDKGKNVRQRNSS

Structure (SMILES)	IC50 (MCT4; [1]) [nM]	IC50 (MCT1) [nM]	IC50 (MCT4) [nM]
CC(C)(C)COc1cccc(-c2cc(COC(C)(C)C(=O)O)nn2-c2cccc3cccnc23)c1 [Example 253, 2-([5-[3-(2,2-Dimethylpropoxy)phenyl]-1-(quinolin-8-yl)-1H-pyrazol-3-yl]methoxy)-2-methylpropanoic acid]	19	55000	–
CC(C)(OCc1cc(-c2cccc(OC3CC3)c2)n(-c2cccc3[nH]ncc23)n1)C(=O)O [Example 153, 2-([5-(3-Cyclopropoxyphenyl)-1-(1H-indazol-4-yl)-1H-pyrazol-3-yl]methoxy)-2-methylpropanoic Acid]	830	44000	–
CC(C)c1ccccc1-n1nc(COC(C)(C)C(=O)O)cc1-c1cccc(OC2CC2)c1 [Example 189, 2-([5-(3-cyclopropoxyphenyl)-1-[2-(propan-2-yl)phenyl]-1H-pyrazol-3-yl]methoxy)-2-methylpropanoic acid]	18	22000	–
Cn1ncc2ccc(-c3cc(COC(C)(C)C(=O)O)nn3-c3ccccc3Cl)cc21 [Example 174, 2-([1-(2-Chlorophenyl)-5-(1-methyl-1H-indazol-6-yl)-1H-pyrazol-3-yl]methoxy)-2-methylpropanoic acid]	101	> 100000	–
CC(C)(OCc1cc(-c2cccc(OCC3COC3)c2)n(-c2ccccc2Cl)n1)C(=O)O [Example 173, 2-([1-(2-Chlorophenyl)-5-[3-(oxetan-3-yl-methoxy)phenyl)-1H-pyraz.ol-3-yl]-methoxy)-2-methylpropanoic acid]	230	66000	–
CCn1ncc2cccc(-n3nc(COC(C)(C)C(=O)O)cc3-c3cccc(OC4CC4)c3)c21 [Example 193, 2-([5-(3-Cyclopropoxyphenyl)-1-(1-ethyl-1H-indazol-7-yl)-1H-pyrazol-3-yl]-methoxy)-2-methylpropanoic acid]	18	38000	–
CCn1ncc2ccc(-c3cc(COC(C)(C)C(=O)O)nn3Cc3ccccn3)cc21 [Example 259, 2-([5-(1-Ethyl-1H-indazol-6-yl)-1-([pyridin-2-yl]methyl)-1H-pyrazol-3-yl]methoxy)-2-methylpropanoic acid]	850	> 100000	–
CC(C)(OCc1cc(-c2cccc(OC3CC3)c2)n(-c2ccccc2-n2cccn2)n1)C(=O)O [Example 236, 2-([5-(3-Cyclopropoxyphenyl)-1-[2-(1H-pyrazol-1-yl)phenyl]-1H-pyrazol-3-yl]-methoxy)-2-methylpropanoic acid]	170	> 100000	–
COc1ccccc1-c1cc(COC(C)(C)C(=O)O)nn1Cc1ccccc1Cl [Example 126]	130	35000	–
CC(C)(OCc1cc(-c2cccc(OC3CC3)c2)n(-c2ccccc2N2CC[C@H](O)C2)n1)C(=O)O [Example 233, 2-([5-(3-Cyclopropoxyphenyl)-1-[2-[(3S)-3-hydroxypyrrolidin-1-yl]phenyl]-1H-pyrazol-3-yl]methoxy)-2-methylpropanoic acid]	700	> 100000	–
CC[C@H](OCc1cc(-c2cccc(OC)c2)n(Cc2ccccc2Cl)n1)C(=O)O [Example 122, (2S)-2-([1-[(2-Chlorophenyl)methyl]-5-(3-methoxyphenyl)-1H-pyrazol-3-yl]methoxy)-butanoic acid]	50	2500	–
COc1ccccc1-n1nc(COC(C)(C)C(=O)O)cc1-c1cccc(OCC(C)C)c1 [Example 102, 2-([1-(2-Methoxyphenyl)-5-[3-(2-methylpropoxy)phenyl]-1H-pyrazol-3-yl]methoxy)-2-methylpropanoic acid]	15	42000	–
CC(C)(OCc1cc(-c2cccc(OC3CC3)c2)n(-c2ccccc2C#N)n1)C(=O)O [Example 239, 2-([1-(2-Cyanophenyl)-5-(3-cyclopropoxy-phenyl)-1H-pyrazol-3-yl)methoxy)-2-methylpropanoic acid]	–	> 100000	150
CC(C)(OCc1cc(-c2cccc(OC3CC3)c2)n(-c2cccc3cn[nH]c23)n1)C(=O)O [Example 152, 2-([5-(3-Cyclopropoxyphenyl)-1-(1H-indazol-7-yl)-1H-pyrazol-3-yl]methoxy)-2-methylpropanoic Acid]	80	> 100000	–
CC(C)COc1cccc(-c2cc(COC(C)(C)C(=O)O)nn2-c2ccccc2)c1 [Example 104, 2-methyl-2-([5-[3-(2-methylpropoxy)phenyl]-1-phenyl-1H-pyrazol-3-yl]methoxy)propanoic acid]	20	12000	–
CCOc1ccccc1-n1nc(COC(C)(C)C(=O)O)cc1-c1cccc(OC2CC2)c1 [Example 187, 2-([5-(3-cyclopropoxyphenyl)-1-(2-ethoxy-phenyl)-1H-pyrazol-3-yl]methoxy)-2-methylpropanoic acid]	43	63000	–
COc1cccc(-c2cc(COC(C)(C)C(=O)O)nn2Cc2ncccc2Cl)c1 [Example 139, 2-([1-[(3-Chloropyridin-2-yl)methyl]-5-(3-methoxyphenyl)-1H-pyrazol-3-yl)methoxy)-2-methylpropanoic acid]	9700	> 100000	–

Further compounds by falling IC50 (MCT4; [1]), results first:

IC50 (MCT4; [1]) [nM]	IC50 (MCT1) [nM]	Structure (SMILES)	IC50 (MCT4) [nM]
12.2	68000	Cn1ncc2cccc(-n3nc(COC(C)(C)C(=O)O)cc3-c3cccc(OCC4CC4)c3)c21 [Example 169, 2-([5-[3-(Cyclopropylmethoxy)phenyl]-1-(1-methyl-1H-indazol-7-yl)-1H-pyrazol-3-yl]-methoxy)-2-methylpropanoic acid]	–
12	32000	CCOc1cc(OCC)cc(-c2cc(COC(C)(C)C(=O)O)nn2-c2cccc3cnn(C)c23)c1 [Example 171, 2-([5-(3,5-Diethoxyphenyl)-1-(1-methyl-1H-indazol-7-yl)-1H-pyiazol-3-yl]methoxy)-2-methylpropanoic acid]	–
9.3	17000	CC(C)(OCc1cc(-c2cccc(OC3CC3)c2)n(-c2cc(Cl)ccc2Cl)n1)C(=O)O [Example 185, 2-([5-(3-Cyclopropoxyphenyl)-1-(2,5-dichlorophenyl)-1H-pyrazol-3-yl]methoxy)-2-methylpropanoic acid]	–
9.1	7900	CC[C@@](C)(OCc1cc(-c2cccc(OC3CC3)c2)n(-c2ccccc2Cl)n1)C(=O)O [Example 262, (2R)-2-([1-(2-Chlorophenyl)-5-(3-cyclopropoxyphenyl)-1H-pyrazol-3-yl]methoxy)-2-methylbutanoic acid]	–
8.7	18000	CC[C@@](C)(OCc1cc(-c2cccc(OC3CC3)c2)n(-c2cccc3cnn(C)c23)n1)C(=O)O [Example 217, (2R)-2-([5-(3-cyclopropoxyphenyl)-1-(1-methyl-1H-indazol-7-yl)-1H-pyrazol-3-yl]methoxy)-2-methylbutanoic acid]	–
6.7	33000	COc1ccccc1-n1nc(COC(C)(C)C(=O)O)cc1-c1cccc(OC(C)C)c1 [Example 113, 2-([1-(2-Methoxyphenyl)-5-[3-(propan-2-yloxy)phenyl]-1H-pyrazol-3-yl]methoxy)-2-methylpropanoic acid]	–
5.9	12000	CC(C)(OCc1cc(-c2cccc(OC3CC3)c2)n(-c2ccccc2Br)n1)C(=O)O [Example 182, 2-([1-(2-Bromophenyl)-5-(3-cyclopropoxy-phenyl)-1H-pyrazol-3-yl]methoxy)-2-methylpropanoic acid]	–
5.6	84000	Cc1nn(C)c2sc(-c3cc(COC(C)(C)C(=O)O)nn3Cc3ccccc3Cl)cc12 [Example 265, 2-([1-[(2-Chlorophenyl)methyl]-5-[1,3-dimethyl-1H-thieno[2,3-c]pyrazol-5-yl]-1H-pyrazol-3-yl)methoxy)-2-methylpropanoic acid]	–
5.3	13000	CC(C)(OCc1cc(-c2cc3ccccc3s2)n(Cc2ccccc2Cl)n1)C(=O)O [Example 195]	–
4.5	63000	COc1cc(OC)cc(-c2cc(COC(C)(C)C(=O)O)nn2-c2ccccc2N2CCCC2)c1 [Example 231, 2-([5-(3,5-Dimethoxyphenyl)-1-[2-(pyrrolidin-1-yl)phenyl]-1H-pyrazol-3-yl]-methoxy)-2-methylpropanoic acid]	–
4.4	73000	CCn1ncc2ccc(-c3cc(COC(C)(C)C(=O)O)nn3-c3ccccc3N(C)C)cc21 [Example 163, 2-([1-[2-(dimethylamino)phenyl]-5-(1-ethyl-1H-indazol-6-yl)-1Hpyrazol-3-yl]-methoxy)-2-methylpropanoic acid]	–
3.4	12000	CC(C)COc1cccc(-c2cc(COC(C)(C)C(=O)O)nn2-c2ccccc2Cl)c1 [Example 101, 2-([1-(2-Chlorophenyl)-5-[3-(2-methyl-propoxy)phenyl]-1H-pyrazol-3-yl)methoxy)-2-methylpropanoic acid]	–
2.1	> 11000	CC(C)COc1cccc(-c2cc(COC(C)(C)C(=O)O)nn2Cc2ccccc2N(C)C)c1 [Example 109, 2-[(1-[[2-(Dimethylamino)phenyl]-methyl]-5-[3-(2-methylpropoxy)phenyl]-1H-pyrazol-3-yl)methoxy)-2-methylpropanoic acid]	–
1.2	> 11000	CC(C)COc1ccc(-c2cc(COC(C)(C)C(=O)O)nn2Cc2ccccc2Cl)s1 [Example 128, 2-([1-[(2-Chlorophenyl)methyl]-5-[5-(2-methylpropoxy)thien-2-yl]-1H-pyrazol-3-yl]methoxy)-2-methylpropanoic acid]	–
